In publication PMC4639779, “Peptide Functionalized Gold Nanorods for the Sensitive Detection of a Cardiac Biomarker Using Plasmonic Paper Devices” (Scientific Reports, 2015):
“And” between values parts separate entries of the source, which are not always exact repeats. Equal values may be shown once.

Columns and labels:
[1] = target: T1, cTnI (Homo sapiens, UniProt P19429); conditions: identified from a phage display peptide library; cited from earlier work
T1 construct: purchased Life Diagnostics, USA
Description: Gold nanorods (AuNR) are an attractive choice as plasmonic nanotransducers for label-free sensing because of their geometrical tunability of LSPR wavelength and high sensitivity. We synthesized AuNRs using a seed-mediated approach with a length of 47.3 ± 2.3 nm and a diameter of 20.2 ± 1.4 nm (Fig. 2A). The human troponin I binding peptide (-FYSHSFHENWPS-), identified from a phage display peptide library, with nanomolar (nM) binding affinity to cTnI was employed here as the biorecognition element. The conjugation of the peptide to AuNRs as achieved by introducing a cysteine residue at ...

[2] = Distance-dependent refractive index sensitivity of AuNR (layer-by-layer); type: physicochemical
Description: We probed the distance-dependent sensitivity of the AuNRs, nanotransducers used in this study, by depositing polyelectrolyte multilayers using layer-by-layer (LbL) assembly. Extinction spectra were collected after the deposition of each bilayer comprised of poly(allylamine hydrocholoride) (PAH) as a positively charged polymer and poly(styrene sulfonate) (PSS) as a negatively charged polymer. […] It is instructive to define a parameter called distance-dependent refractive index sensitivity (σ), which is the LSPR shift caused by the deposition of a 1 nm thick dielectric layer (polyelectrolyte multilayers in the present case) at a predetermined distance from the surface of the nanotransducer. The extinction measurements after troponin binding to the bioconjugated AuNR were performed in the dry state. So, considering that the thickness of peptide and antibody in their dry state is ~1 nm and ~4.2 nm for peptide and antibody, respectively, the values of σ are computed as shown in Fig. 5E. For peptide recognition elements, σ is found to be 6.67 nm/nm whereas in case of antibody, σ is found to be 4.33 nm/nm. From the distance-dependent refractive index sensitivity measurements, it can be seen that the local refractive index sensitivity with peptide recognition elements is nearly 50% higher than compared to that with antibody-based recognition elements. […] This discrepancy can possibly be due to the higher number of cTnI molecules bound on the AuNR surface in the case of the peptide recognition elements compared to antibodies. The low steric hindrance of the peptides facilitates a higher density of the recognition elements on the surface of the Au nanotransducers and thus a higher density of cTnI molecules. This observation will be further explored in future studies in order to maximize the sensitivity of our BPDs.
Glass substrates were modified by 1% P2VP followed by the adsorption of AuNR. […]

[3] = AFM dry state thickness of recognition layer on AuNR; type: physicochemical
Method: We have also used dynamic light scattering (DLS) to monitor the changes in the hydrodynamic size of the AuNR upon bioconjugation with cTnI binding peptide or anti-cTnI. […] The dry state thickness of the peptide and antibody recognition layers was measured using atomic force microscopy (AFM; Supplemental Figure S6).
Now we turn our attention to the structure-based functional mechanism of the peptide-conjugated BPDs. The structure and thickness layer of the peptide recognition element on the gold surface was also investigated using molecular dynamic simulations (described in the supplemental section). […] The amino acid Trp[10] in the peptide (a possible binding residue to cTnI) is distal to the gold surface and accessible for cTnI binding. […] These key residues provide structural information and will be used in further studies for the optimization of peptide recognition elements for cTnI. Of importance to this study, the thickness of the biomolecule adlayer can be obtained from our molecular dynamic simulations. […] The smaller thickness of the peptide layer renders higher sensitivity of BPDs using peptide recognition elements. For calculating the thickness layer from our computational models, the gold surface is aligned in the XY plane and the thickness of the peptide or peptide-cTnI complex on the gold surface is calculated as the maximum difference of the Z-coordinates. […]

[4] = system: cTnI (troponin I); experiment: LSPR detection of cTnI with bioplasmonic paper device in buffer; type: binding, human; conditions: highest concentration tested, 3.53 μg/ml cTnI
Method: To probe the sensing capability of the BPDs, we exposed the BPDs to troponin I (3.53 μg/ml in 0.1 M TBS pH 8.0). […] The higher sensitivity of peptide-AuNR compared to antibody-AuNR is due to differences in the thickness of the peptide and antibody adsorbate layer as will be discussed in detail below. To probe the limit of detection in both cases, BPDs with bioconjugated AuNR were exposed to varying concentrations of cTnI. […] To compare the selectivity of the peptide and antibody towards cTnI, we used human serum albumin (HSA) as an interfering protein (Supplemental Figure S11). […] A regular laboratory filter paper (Whatman #1) was used for the absorption of nanorods. A 1 cm × 1 cm paper strip is taken and immersed in a solution of AuNR conjugates (peptide and antibody) and left overnight at 4 °C. The paper strip was taken out and washed with tris buffer and immersed in different concentrations of troponin in tris buffer (pH 8) for 2 hours at 4 °C. It was removed and washed thoroughly with tris buffer and dried under a stream of nitrogen. Extinction spectra from paper substrates were collected using a CRAIC microspectrophotometer (QDI 302) coupled to a Leica optical microscope (DM 4000 M) with 20× objective in the range of 450–800 nm with 10 accumulations and 100 ms exposure time in reflection mode. The spectral resolution of the microspectrophotometer is 0.2 nm. […]

[5] = target: T2, Human Cardiac Troponin-I Recombinant (human, UniProt P19429 1-210); experiment: pull-down; peptide-conjugated AuNRs with cTnI; SDS-PAGE, blotted with polyclonal goat antibody; conditions: both partners purified
T2 construct: human cardiac troponin I, recombinant, bought; also called cTnI; source: bought: Life Diagnostics, USA (recombinant)
T2 sequence (P19429 whole entry): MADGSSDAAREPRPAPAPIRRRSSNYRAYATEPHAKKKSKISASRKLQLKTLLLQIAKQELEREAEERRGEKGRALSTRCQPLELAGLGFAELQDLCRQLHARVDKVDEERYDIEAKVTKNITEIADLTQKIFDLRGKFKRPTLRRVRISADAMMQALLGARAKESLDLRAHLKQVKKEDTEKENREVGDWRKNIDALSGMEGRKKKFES

T1 sequence (P19429 whole entry): as above

-FYSHSFHENWPS-
binding affinity to cTnI [1]: nanomolar

-FYSHSFHENWPSC- [cysteine-modified peptide]
distance-dependent refractive index sensitivity (σ) ([2]; AuNRs on glass, PAH/PSS multilayers, at dry thickness of ~1 nm (peptide) or ~4.2 nm (antibody)): 6.67 nm/nm
corresponding LSPR shift from the distance-dependence curve ([2]; from σ curve of Fig. 5E): 24.5 nm
local refractive index sensitivity higher than with antibody-based recognition elements ([2]; peptide vs antibody): ~50%
thickness of recognition layer on AuNR [3]: 0.96 nm and ~ 0.9 nm
LSPR shift higher than with antibodies as recognition elements [4]: ~100%

B1: cysteine-modified human troponin I binding peptide (-FYSHSFHENWPSC-) (peptide)
peptide: FYSHSFHENWPSC
notes: In all assays the peptide was attached to gold (Au surface of the QCM, or gold nanorods) by an Au-S linkage through its C-terminal cysteine; source: synthetic peptide, bought: Genscript USA Inc
binding result [5]: binds
